Reference: patent US20210047398A1, “ASPROSIN, A FAST-INDUCED GLUCOGENIC PROTEIN HORMONE” (Baylor College of Medicine, priority 2016, published 2021)

Columns and labels:
AgRP neurons = assay: Whole-cell patch clamp recordings on AgRP neurons; assay type: cell-based, mice; conditions: for effect of pre-treating on asprosin-mediated AgRP neuron activation (firing frequency and resting membrane potential): 100 μM NKY80, 50 μM suramin, 20 μM NF449, 50 μM PTX, 1 μM PKI, 100 μM [D-Lys3]-GHRP-6
Method: Electrophysiology—Whole-cell patch clamp recordings were performed on identified AgRP neurons or POMC neurons in the brain slices containing the arcuate nucleus of the hypothalamus (ARH). In particular, to identify AgRP neurons, the inventors crossed Rosa26-tdTOMATO allele onto the regular AgRP-Cre mice (Tong et al., 2008) to generate AgRP-Cre/Rosa26-tdTOMATO mice, which express TOMATO selectively in AgRP/NPY neurons. In some studies, the inventors crossed NPY-GFP mice (Pinto et al., 2004) with NPS mice to generate NPY-GFP mice with or without the NPS mutation, and GFP-labelled neurons in the arcuate nucleus were recorded. In order to record POMC neurons, the inventors crossed Rosa26-tdTOMATO allele onto the POMC-CreERT2 mice (Berglund et al., 2013) to generate POMC-CreERT2/Rosa26-tdTOMATO mice, which express TOMATO selectively in mature POMC neurons upon tamoxifen induction (0.2 mg/g, i.p. 6 weeks of age). In some studies, the inventors also crossed the AgRP-DTR allele onto POMC-GFP mice, and these mice received DT or saline injections (described above) to generate mice with or without AgRP neurons ablated.
Six to twelve-week old mice were deeply anesthetized with isoflurane and transcardially perfused with a modified ice-cold sucrose-based cutting solution (pH 7.3) containing 10 mM NaCl, 25 mM NaHCO3, 195 mM Sucrose, 5 mM Glucose, 2.5 mM KCl, 1.25 mM NaH2PO4, 2 mM Na-Pyruvate, 0.5 mM CaCl2, and 7 mM MgCl2, bubbled continuously with 95% O2 and 5% CO2 (Ren et al., 2012). The mice were then decapitated, and the entire brain was removed and immediately submerged in the cutting solution. Slices (250 μm) were cut with a Microm HM 650V vibratome (Thermo Scientific). Three brain slices containing the arcuate nucleus were obtained for each animal (Bregma −2.06 mm to −1.46 mm; Interaural 1.74 mm to 2.34 mm), and recordings were made at levels throughout this brain region. The slices were recovered for 1 h at 34° C. and then maintained at room temperature in artificial cerebrospinal fluid (aCSF, pH 7.3) containing 126 mM NaCl, 2.5 mM KCl, 2.4 mM CaCl2, 1.2 mM NaH2PO4, 1.2 mM MgCl2, 11.1 mM glucose, and 21.4 mM NaHCO3) saturated with 95% O2 and 5% CO2 before recording.
Slices were transferred to a recording chamber and allowed to equilibrate for at least 10 min before recording. The slices were superfused at 34° C. in oxygenated aCSF at a flow rate of 1.8-2 ml/min. GFP or TOMATO-labeled neurons in the ARH were visualized using epifluorescence and IR-DIC imaging on an upright microscope (Eclipse FN-1, Nikon) equipped with a moveable stage (MP-285, Sutter Instrument). Patch pipettes with resistances of 3-5 MΩ were filled with intracellular solution (pH 7.3) containing 128 mM K-Gluconate, 10 mM KCl, 10 mM HEPES, 0.1 mM EGTA, 2 mM MgCl2, 0.05 mM Na-GTP and 0.05 mM Mg-ATP. Recordings were made using a MultiClamp 700B amplifier (Axon Instrument), sampled using Digidata 1440A and analyzed offline with pClamp 10.3 software (Axon Instruments). Series resistance was monitored during the recording, and the values were generally <10 MΩ and were not compensated. The liquid junction potential was +12.5 mV, and was corrected after the experiment. Data were excluded if the series resistance increased dramatically during the experiment or without overshoot for action potential. Currents were amplified, filtered at 1 kHz, and digitized at 20 kHz. Current clamp was engaged to test neural firing frequency and resting membrane potential (RM) at the baseline and puff delivered recombinant Asprosin (500 ms at various concentrations indicated in the figures). For the asprosin antibody pre-incubation experiment, asprosin and anti-asprosin mAB or IgG were gently mixed at a 1:100 ratio, and then kept on ice for one hour before recording. After AgRP or POMC neuron response to asprosin alone was confirmed, the mixture of recombinant asprosin and anti-asprosin mAB or IgG was perfused to treat the AgRP or POMC neurons for 4 minutes. […]

[1] = SPECT scans and gamma counting after intravenous I125-asprosin; assay type: in vivo, mice; conditions: 15 minutes after intravenous injection of 150 μCi
Method: FIGS. 22A-22E: Asprosin traffics to the liver in vivo and binds the hepatocyte surface with high affinity in a saturable and competitive manner. (FIG. 22A) SPECT scans were performed 15 minutes after intravenous injection with 150 μCi I125-asprosin, boiled I125-asprosin, or free I125 in live, anesthetized mice previously injected with bismuth as a hepatic contrast agent. 3 representative images are shown in axial and coronal planes. (FIG. 22B) Liver asprosin accumulation was measured as liver photon intensity from mice in (FIG. 22A). (FIG. 22C) Tissue radioactivity (normalized to tissue weight) was measured using a γ-counter after sacrificing mice from (FIG. 22A), 45 minutes following injection (n=4 mice). (FIG. 22D) Sandwich ELISA was used to measure plasma His tag (recombinant asprosin contains an N-terminal His tag) in WT mice before injection and 15, 30, 60 and 120 minutes after injection with 30 μg recombinant asprosin. The time taken for peak signal to fall to half-maximal level is indicated by the arrow. […] Specific binding (shown in red) was calculated as the difference between the two curves. Data are represented as the mean±SEM.
Recombinant asprosin was labeled with iodine-125 (I^125) and injected intravenously in mice, followed by single-photon emission computerized tomography (SPECT) scans to identify sites of accumulation. […]

[2] = test system: mouse primary hepatocytes
Method: Cell Culture. Primary mouse hepatocytes were isolated from 8- to 12-week-old WT mice using standard methodology. […] The cells were treated with 50 nM recombinant asprosin or GFP for 10 minutes for cAMP and PKA assays and for 2 hours for the in vitro glucose production assay. Cells were pretreated with various inhibitors for 1 hour prior to treatment with asprosin, GFP, Glucagon or Epinephrine. cAMP was measured from cell lysates using the cAMP direct immunoassay kit from Cell Biolabs. PKA activity was measured from cell lysates using the PKA kinase activity kit from Enzo Lifesciences, Inc. Media glucose content was measured using the Glucose Colorimetric Assay Kit from Biovision. Results were normalized to protein content.

[3] = Food intake, energy expenditure and body composition after asprosin gain-of-function; assay type: in vivo, mice; conditions: single subcutaneous dose, C57Bl/6 mice, vs GFP
Method: Mouse food intake and energy expenditure—Food intake and energy expenditure were measured using the CLAMS System (Comprehensive Lab Animal Monitoring System, Columbus Instruments). Animals were acclimatized in the recording chambers for 48-72 hours, and measurements were taken subsequently for 24 hours during the light cycle and dark cycle. Mice received food and water ad libitum, or after an overnight fast where indicated. Oxygen consumption and food intake were recorded.
As previously described (Yan et al., 2016), male mice were anesthetized with inhaled isoflurane and stainless steel cannulas (Plastics One) were inserted into the lateral ventricles (0.34 mm caudal and 1 mm lateral from bregma; depth, 2.3 mm). […] These mice received 10 ng GFP ([…]) twice a day for 3 continuous days, and 10 ng asprosin (in […]) the last day. The BioDAQ food intake monitoring system (Research Diets, Inc) was used to monitor the food intake, and the food intake from the last GFP injection and asprosin were compared.
Mouse body composition—Body composition was analyzed using an ECHO-MRI system (Echo medical systems, Texas) or DEXA scans where indicated. Lean mass, fat mass, and overall body weight were calculated using the manufacturer-provided software.

[4] = Asprosin plasma half-life (biotinylated asprosin sandwich ELISA); assay type: in vivo; conditions: mammalian cell expressed asprosin, subcutaneous, mice, FIG. 50B
Method: Asprosin Plasma Half-life—Asprosin expressed in HEK293 was labeled with biotin using a EZ-Link Sulfo-NHS-Biotin kit (Thermo Scientific), and excess biotin was removed using a Zeba Spin desalting column (Thermo Scientific). Final protein concentration was estimated using a BCA assay (Thermo Scientific). Approximately 30 ug/mouse of labeled asprosin was injected subcutaneously into C57Bl/6 mice. Blood was drawn before injection (baseline), and 30, 60, 120, and 360 minutes after injection, as well as after 24 and 48 hours. Biotinylated asprosin was detected using a custom designed sandwich ELISA. A plate was coated with the anti-asprosin monoclonal antibody (capture antibody), total plasma asprosin was bound, and only biotinylated asprosin was detected using Streptavidin-HRP.

Nc1ncc2c(n1)CC(c1ccco1)CC2=O (stereo not drawn) [NKY80, reference compound]
effect of pre-treating on asprosin-mediated AgRP neuron activation (firing frequency and resting membrane potential) (AgRP neurons): completely prevented

PTX: Gαi inhibitor [reference compound]
effect of pre-treating on asprosin-mediated AgRP neuron activation (firing frequency and resting membrane potential) (AgRP neurons): no impact

I^125-Asprosin: Recombinant asprosin labeled with iodine-125
site of accumulation (SPECT, liver photon intensity) [1]: trafficked primarily to the liver

O=C(Nc1cc(C(=O)Nc2ccc(S(=O)(=O)[O-])cc2S(=O)(=O)[O-])cc(C(=O)Nc2ccc(S(=O)(=O)[O-])cc2S(=O)(=O)[O-])c1)Nc1cc(C(=O)Nc2ccc(S(=O)(=O)[O-])cc2S(=O)(=O)[O-])cc(C(=O)Nc2ccc(S(=O)(=O)[O-])cc2S(=O)(=O)[O-])c1.[Na+].[Na+].[Na+].[Na+].[Na+].[Na+].[Na+].[Na+] [NF449, reference compound]
effect of pre-treating on asprosin-mediated AgRP neuron activation (firing frequency and resting membrane potential) (AgRP neurons): completely prevented

Cc1ccc(C(=O)Nc2ccc(S(=O)(=O)O)c3cc(S(=O)(=O)O)cc(S(=O)(=O)O)c23)cc1NC(=O)c1cccc(NC(=O)Nc2cccc(C(=O)Nc3cc(C(=O)Nc4ccc(S(=O)(=O)O)c5cc(S(=O)(=O)O)cc(S(=O)(=O)O)c45)ccc3C)c2)c1 [suramin, reference compound]
effect on asprosin-mediated hepatocyte PKA activation [2]: blocked
effect of pre-treating on asprosin-mediated AgRP neuron activation (firing frequency and resting membrane potential) (AgRP neurons): completely prevented

[D-Lys3]-GHRP-6 [reference compound]
effect of pre-treating on asprosin-mediated AgRP neuron activation (firing frequency and resting membrane potential) (AgRP neurons): no impact

B1: mammalian-generated asprosin: Human asprosin with C-terminal 6x His tag expressed in Expi293 mammalian cells, glycosylated (protein)
chain: STNETDASNIEDQSETEANVSLASWDVEKTAIFAFNISHVSNKVRILELLPALTTLTNHNRYLIESGNEDGFFKINQKEGISYLHFTKKKPVAGTYSLQISSTPLYKKKELNQLEDKYDKDYLSGELGDNLKMKIQVLLHHHHHHH
food intake over the next 24-hr [3]: greater food intake
plasma half-life [4]: ~2.42 h
plasma half-life ([4]; listed as Mammalian asprosin): approximately 145 minutes
dose-dependency of AgRP neuron activation (firing frequency, membrane potential) (AgRP neurons; 0.01-100 nM, intact slices): dose-dependent activation
EC50 for AgRP neuron activation (AgRP neurons; firing frequency and membrane potential): nanomolar to subnanomolar range
